{"source": "patent US8771646B2", "about": "“Nicotinic acid and picolinic acid derived near-infrared fluorophores” (VisEn Medical, Inc., priority 2005, dated 2014)", "experiment": "Absorption and emission maxima in water", "type": "physicochemical"}
{"smiles": "O=C(O)c1ccc(C(=C\\C=C2/Sc3ccccc3N2CCCS(=O)(=O)O)/C=C/c2sc3ccccc3[n+]2CCCS(=O)(=O)O)nc1", "note": "[Example 6]", "values": [{"measurement": "Abs. max (water)", "result": 643, "unit": "nm"}, {"measurement": "Em. Max (water)", "result": 663, "unit": "nm"}]}
